Data on nine molecules can be found in patent US12371454B2, “Cyclic peptide compound having Kras inhibitory action” (priority 2019, dated 2025).

Each structure is given as a SMILES string. Starred links: 1 amine or outer side, 2 acyl side, 3 side chain; linkers in the order of their positions; H or OH if unused. Positions of bridges follow the written chain, without caps; N, C: chain ends. Non-standard residues stand in square brackets, D forms with d. Residues, ends and D or L forms follow the SMILES beside them. *: point of attachment. hPhe(3,5-F2-4-CF3) = N[C@@H](CCc1cc(F)c(C(F)(F)F)c(F)c1)C(=O)O; hPhe(3-Cl-4-CF3) = N[C@@H](CCc1ccc(C(F)(F)F)c(Cl)c1)C(=O)O; hPhe(3-F,4-CF3) = N[C@@H](CCc1ccc(C(F)(F)F)c(F)c1)C(=O)O; NMePhe(4-CF3) = CN[C@@H](Cc1ccc(C(F)(F)F)cc1)C(=O)O; NMePhe(3-Cl) = CN[C@@H](Cc1cccc(Cl)c1)C(=O)O; NMeNle(6-CHF2) = CN[C@@H](CCCCC(F)F)C(=O)O; NMePhe(4-F) = CN[C@@H](Cc1ccc(F)cc1)C(=O)O; NMedβ3hAla = C[C@H](CC(=O)[*:2])N(C)[*:1]; NMeGly(cPent) = CN[C@H](C(=O)O)C1CCCC1; Phe(3-I) = N[C@@H](Cc1cccc(I)c1)C(=O)O; Pro(4,4-F2) = O=C(O)[C@@H]1CC(F)(F)CN1; Pip(4-oxo) = O=C1CCN[C@H](C(=O)O)C1; NMeCha = CN[C@@H](CC1CCCCC1)C(=O)O; NMeChg = CN[C@H](C(=O)O)C1CCCCC1; NMeT = CN[C@H](C(=O)O)[C@@H](C)O; αMeF = C[C@](N)(Cc1ccccc1)C(=O)O; N(CH2CH2)2CF2 = FC1(F)CCN(*)CC1; NMeD = CN[C@@H](CC(=O)O)C(=O)O; NMeL = CN[C@@H](CC(C)C)C(=O)O; Chg = N[C@H](C(=O)O)C1CCCCC1; NMeV = CN[C@H](C(=O)O)C(C)C; d(β3hA) = C[C@@H](N)CC(=O)O; Azetidin(1-yl) = C1CN(*)C1; dPip = O=C(O)[C@H]1CCCCN1; Morpholide = C1CN(*)CCO1; NMeA = CN[C@@H](C)C(=O)O; NMeAib = CNC(C)(C)C(=O)O; Piperidide = C1CCN(*)CC1; Pra = C#CC[C@H](N)C(=O)O; Pyrrolidide = C1CCN(*)C1; Ac5c = NC1(C(=O)O)CCCC1; Aze = O=C(O)[C@@H]1CCN1; Sar = CNCC(=O)O

In this experiment the target is T1, Kras and SOS1 (biotin-tagged human Kras loaded with GDP, His-tagged human SOS1) (Homo sapiens, UniProt P01116, G12D).
T1 construct: made in house; host or cells: E. coli (stated for Kras only)
T1 sequence (P01116 1-188 isoform P01116-2 G12D): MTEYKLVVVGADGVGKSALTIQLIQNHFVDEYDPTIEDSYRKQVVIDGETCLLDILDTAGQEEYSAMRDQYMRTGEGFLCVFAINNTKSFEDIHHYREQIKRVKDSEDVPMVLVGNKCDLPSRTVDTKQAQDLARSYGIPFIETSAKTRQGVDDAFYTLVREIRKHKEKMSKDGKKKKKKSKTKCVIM
The experiment in a line: Protein-protein interaction inhibition between Kras and SOS1 (KrasGl2D-SOS PPI) using AlphaScreen. The format is binding. Particulars: AlphaScreen; biotin-tagged human Kras loaded with GDP, His-tagged human SOS1; read-out: KRAS G12D-SOS PPI IC50. The gist of the method: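 Read-out is acceptor-bead light at 520-620 nm, arising when 680 nm-irradiated nickel donor beads pass singlet oxygen to streptavidin acceptors. The bead pair links His-tagged SOS1 with biotin-tagged, GDP-bound Kras from E. coli.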
As usually defined, the IC50 is the midpoint of a concentration-inhibition curve. As to `CC[C@H](C)[C@@H]1NC(=O)[C@H](CC(C)C)N(C)C(=O)C[C@@H](C(=O)N2CCCCC2)N(C)C(=O)[C@H]([C@@H](C)O)N(C)C(=O)C2(CCCC2)NC(=O)[C@@H]2CCCN2C(=O)[C@H](CCc2ccc(C(F)(F)F)c(Cl)c2)NC(=O)CN(C)C(=O)[C@H](CC2CCCCC2)N(C)C(=O)CN(C)C(=O)CN(C)C1=O` [Compound 1041] ([NMeL]I[Sar][Sar][NMeCha][Sar][hPhe(3-Cl-4-CF3)]P[Ac5c][NMeT][NMeD]-Piperidide; lactam N-11), the IC50 worked out at 1.6 nM. Then `CC(C)C[C@H]1C(=O)N[C@@H](C2CCCCC2)C(=O)N(C)CC(=O)N(C)CC(=O)N(C)[C@@H](CCCCC(F)F)C(=O)N(C)CC(=O)N[C@@H](CCc2ccc(C(F)(F)F)c(F)c2)C(=O)N(C)[C@@H](CC(C)C)C(=O)N[C@@](C)(Cc2ccccc2)C(=O)N(C)[C@@H](CC(C)C)C(=O)N[C@H](C(=O)N2CCCC2)CC(=O)N1C` [Compound 1450] ([NMeL][Chg][Sar][Sar][NMeNle(6-CHF2)][Sar][hPhe(3-F,4-CF3)][NMeL][αMeF][NMeL]D-Pyrrolidide; lactam N-11), with 220 nM. For `CC[C@H](C)[C@@H]1NC(=O)[C@H](CC(C)C)N(C)C(=O)C[C@@H](C(=O)N2CCOCC2)N(C)C(=O)[C@H](C2CCCCC2)N(C)C(=O)C2(CCCC2)NC(=O)[C@@H]2CC(F)(F)CN2C(=O)[C@H](CCc2cc(F)c(C(F)(F)F)c(F)c2)NC(=O)CN(C)C(=O)[C@H](CC2CCCCC2)N(C)C(=O)CN(C)C(=O)CN(C)C1=O` [Compound 1337] ([NMeL]I[Sar][Sar][NMeCha][Sar][hPhe(3,5-F2-4-CF3)][Pro(4,4-F2)][Ac5c][NMeChg][NMeD]-Morpholide; lactam N-11) the value was 0.55 nM.

Regarding `CC[C@H](C)[C@@H]1NC(=O)[C@H](CC(C)C)N(C)C(=O)C[C@@H](C)N(C)C(=O)[C@H](C2CCCC2)N(C)C(=O)C2(CCCC2)NC(=O)[C@@H]2CC(F)(F)CN2C(=O)[C@H](CCc2ccc(C(F)(F)F)c(Cl)c2)NC(=O)CN(C)C(=O)[C@H](Cc2ccc(C(F)(F)F)cc2)N(C)C(=O)CN(C)C(=O)CN(C)C1=O` [Compound 611] (cyclo([Ac5c][NMeGly(cPent)][NMedβ3hAla][NMeL]I[Sar][Sar][NMePhe(4-CF3)][Sar][hPhe(3-Cl-4-CF3)][Pro(4,4-F2)])), the IC50 is 3.3 nM.

For the molecule `C#CC[C@@H]1NC(=O)[C@H](Cc2cccc(I)c2)NC(=O)CN(C)C(=O)[C@H](Cc2ccc(F)cc2)N(C)C(=O)[C@@H]2CCN2C(=O)[C@H](C)N(C)C(=O)[C@H]([C@@H](C)CC)NC(=O)[C@H](CC(C)C)N(C)C(=O)C[C@@H](C(=O)N2CCCCC2)N(C)C(=O)[C@H](CC(C)C)NC(=O)C(C)(C)N(C)C1=O` [Compound 1230] ([NMeL]I[NMeA][Aze][NMePhe(4-F)][Sar][Phe(3-I)][Pra][NMeAib]L[NMeD]-Piperidide; lactam N-11), the IC50 was 98 nM. As to `CC[C@H](C)[C@@H]1NC(=O)[C@H](CC(C)C)N(C)C(=O)C[C@@H](C(=O)N2CCC2)N(C)C(=O)[C@H](C2CCCC2)N(C)C(=O)C2(CCCC2)NC(=O)[C@H](CC(=O)N2CCC(F)(F)CC2)N(C)C(=O)[C@H](CCc2ccc(C(F)(F)F)c(Cl)c2)NC(=O)CN(C)C(=O)[C@H](CC2CCCCC2)N(C)C(=O)[C@@H]2CCN2C(=O)[C@H](C)N(C)C1=O` [Compound 719] ([NMeL]I[NMeA][Aze][NMeCha][Sar][hPhe(3-Cl-4-CF3)][NMeD](N(CH2CH2)2CF2)[Ac5c][NMeGly(cPent)][NMeD]-{Azetidin(1-yl)}; lactam N-11), the IC50 is 5.9 nM. For `CC[C@H](C)[C@@H]1NC(=O)[C@H](C)N(C)C(=O)C[C@@H](C)NC(=O)[C@H](C2CCCC2)N(C)C(=O)C2(CCCC2)NC(=O)[C@@H]2CCCN2C(=O)[C@H](CCc2ccc(C(F)(F)F)c(Cl)c2)NC(=O)CN(C)C(=O)[C@H](Cc2cccc(Cl)c2)N(C)C(=O)[C@@H]2CCCN2C(=O)CN(C)C1=O` [Compound 186] (cyclo([Ac5c][NMeGly(cPent)][d(β3hA)][NMeA]I[Sar]P[NMePhe(3-Cl)][Sar][hPhe(3-Cl-4-CF3)]P)) the value was 48 nM; for `CC[C@H](C)[C@@H]1NC(=O)[C@H](C)N(C)C(=O)C[C@@H](C)NC(=O)[C@H](C(C)C)N(C)C(=O)C2(CCCC2)NC(=O)[C@@H]2CCCN2C(=O)[C@H](CCc2ccc(C(F)(F)F)c(Cl)c2)NC(=O)[C@H]2CCCCN2C(=O)[C@H](CC2CCCCC2)N(C)C(=O)CN(C)C(=O)CN(C)C1=O` [Compound 746] (cyclo([Ac5c][NMeV][d(β3hA)][NMeA]I[Sar][Sar][NMeCha][dPip][hPhe(3-Cl-4-CF3)]P)), 130 nM; for `CC[C@H](C)[C@@H]1NC(=O)[C@H](CC(C)C)N(C)C(=O)C[C@@H](C(=O)N2CCCCC2)N(C)C(=O)[C@H](C2CCCCC2)N(C)C(=O)C2(CCCC2)NC(=O)[C@@H]2CC(=O)CCN2C(=O)[C@H](CCc2ccc(C(F)(F)F)c(Cl)c2)NC(=O)CN(C)C(=O)[C@H](CC2CCCCC2)N(C)C(=O)CN(C)C(=O)CN(C)C1=O` [Compound 1089] ([NMeL]I[Sar][Sar][NMeCha][Sar][hPhe(3-Cl-4-CF3)][Pip(4-oxo)][Ac5c][NMeChg][NMeD]-Piperidide; lactam N-11), 1.6 nM.
